# Experimental data as given in US9193719B2, “1,2,4-triazol-5-ones and analogs exhibiting anti-cancer and anti-proliferative activities” (Deciphera Pharmaceuticals, LLC, priority 2013, dated 2015).
# What was measured:
# [1] = system: osteoclast precursors; test: Osteoclast tartrate-resistant acid phosphatase assay; format: cell-based; details: RANKL and M-CSF, 7-14 days, tartrate-resistant acid phosphatase activity
# Experimental: Osteoclast Tartrate-Resistant Acid Phosphatase Assay
# A serial dilution of test compound was dispensed into a 384-well black clear bottom plate (Nalge Nunc International, Rochester, N.Y.). Compound was diluted by the addition of DMEM media supplemented with 10% characterized fetal bovine serum (Invitrogen, Carlsbad, Calif.). Diluted compound was transferred to a 384-well black clear bottom plate. Two-thousand five hundred osteoclast precursors (Lonza, Walkersville, Md.) were added per well in growth media containing Receptor Activator of Nuclear Factor Kappa-beta ligand (RANKL) and M-CSF (R&D Systems, Minneapolis, Minn.). Plates were incubated for 7-14 days at 37 degrees Celsius, 5% CO2, and 95% humidity to allow differentiation of osteoclast precursors. At the end of the incubation period, 10 μL of supernatant from each well was transferred to a clear 384-well plate. Tartrate-resistant acid phosphatase activity in the supernatant samples was determined using an acid phosphatase assay kit (Sigma, St. Louis, Mo.). Absorbance was measured at 550 nm using a plate reader. Data was analyzed using Prism software (Graphpad, San Diego, Calif.) to calculate IC50 values.
# [2] = molecular target: T1, unphosphorylated c-FMS kinase (uFMS, Seq. ID no. 1) (Homo sapiens, UniProt P07333); test: uFMS kinase enzymatic assay (pyruvate kinase/lactate dehydrogenase coupled); format: biochemical; details: ATP 500 μM, rate 3 to 4 h
# T1 construct: purchased Millipore
# T1 sequence (P07333 538-972): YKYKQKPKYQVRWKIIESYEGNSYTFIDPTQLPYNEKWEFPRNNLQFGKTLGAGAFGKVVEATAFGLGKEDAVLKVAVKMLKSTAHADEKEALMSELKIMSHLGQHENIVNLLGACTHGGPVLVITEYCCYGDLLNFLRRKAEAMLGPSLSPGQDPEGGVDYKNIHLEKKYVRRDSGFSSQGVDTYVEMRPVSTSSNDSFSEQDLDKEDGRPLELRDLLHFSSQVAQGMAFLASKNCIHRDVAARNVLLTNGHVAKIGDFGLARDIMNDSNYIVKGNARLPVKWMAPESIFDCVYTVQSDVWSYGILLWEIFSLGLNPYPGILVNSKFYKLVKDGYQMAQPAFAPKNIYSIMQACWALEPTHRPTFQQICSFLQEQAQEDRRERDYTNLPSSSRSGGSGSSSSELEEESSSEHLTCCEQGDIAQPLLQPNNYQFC
# Experimental: uFMS Kinase (Seq. ID No. 1) Assay
# Activity of unphosphorylated c-FMS kinase (uFMS, Seq. ID no. 1) was determined by following the production of ADP from the FMS kinase reaction with ATP and poly E4Y as substrates through coupling with the pyruvate kinase/lactate dehydrogenase system (e.g., Schindler et al. Science (2000) 289: 1938-1942). In this assay, the oxidation of NADH (thus the decrease at A340 nm) was continuously monitored spectrophometrically. The reaction mixture (100 μL) contained FMS (purchased from Millipore) (10 nM), polyE4Y (1 mg/mL), MgCl2 (10 mM), pyruvate kinase (4 units), lactate dehydrogenase (0.7 units), phosphoenol pyruvate (1 mM), NADH (0.28 mM) and ATP (500 μM) in 90 mM Tris buffer containing 0.2% octyl-glucoside and 1% DMSO, pH 7.5. The inhibition reaction was started by mixing serial diluted test compound with the above reaction mixture. The absorption at 340 nm was monitored continuously for 4 hours at 30° C. on Synergy 2 plate reader. The reaction rate was calculated using the 3 to 4 h time frame. Percent inhibition was obtained by comparison of reaction rate with that of a control (i.e. in the absence of test compound). IC50 values were calculated from a series of percent inhibition values determined at a range of inhibitor concentrations using software routines as implemented in the GraphPad Prism software package.
# [3] = molecular target: T2, unphosphorylated PDGFRβ kinase (uPDGFRβ, Seq. ID No. 3) (Homo sapiens, UniProt P09619); test: uPDGFRβ kinase enzymatic assay (pyruvate kinase/lactate dehydrogenase coupled); format: biochemical; details: ATP 500 μM, rate 1.5 to 2.5 h
# T2 construct: purchased DeCode
# Experimental: Unphosphorylated PDGFRβ (uPDGFRβ) Kinase (Seq. ID No. 3) Assay
# Activity of unphosphorylated PDGFRβ kinase (uPDGFRβ, Seq. ID No. 3) was determined by following the production of ADP from the kinase reaction with ATP and poly E4Y as substrates through coupling with the pyruvate kinase/lactate dehydrogenase system (e.g., Schindler et al. Science (2000) 289: 1938-1942). In this assay, the oxidation of NADH (thus the decrease at A340 nm) was continuously monitored spectrophometrically. The reaction mixture (100 μL) contained PDGFRβ (DeCode, 15.7 nM), polyE4Y (2.5 mg/mL), MgCl2 (10 mM), pyruvate kinase (4 units), lactate dehydrogenase (0.7 units), phosphoenol pyruvate (1 mM) and NADH (0.28 mM) and ATP (500 μM) in a 90 mM Tris buffer containing 0.2% octyl-glucoside and 1% DMSO, at pH 7.5. The inhibition reaction was started by mixing serial diluted test compound with the above reaction mixture. The absorption at 340 nm was monitored continuously for 4 h at 30° C. on a Polarstar Optima or Synergy 2 plate reader. The reaction rate was calculated using the 1.5 to 2.5 h time frame. Percent inhibition was obtained by comparison of reaction rate with that of a control (i.e. with no test compound). IC50 values were calculated from a series of percent inhibition values determined at a range of inhibitor concentrations using software routines as implemented in the GraphPad Prism software package.
# [4] = system: M-NFS-60 cells; test: M-NFS-60 cell proliferation assay (resazurin); format: cell-based; details: 67 h incubation
# Experimental: M-NFS-60 cells (catalog #CRL-1838) were obtained from the American Type Culture Collection (ATCC, Manassas, Va.). Briefly, cells were grown in suspension in RPMI 1640 medium supplemented with 10% characterized fetal bovine serum (Invitrogen, Carlsbad, Calif.), 0.05 mM 2-mercaptoethanol, and 20 ng/mL mouse recombinant macrophage colony stimulating factor (M-CSF) at 37° C., 5% CO2, and 95% humidity. Cells were allowed to expand until reaching saturation at which point they were subcultured or harvested for assay use.
# M-NFS-60 Cell Proliferation Assay
# A serial dilution of test compound was dispensed into a 384-well black clear bottom plate (Corning, Corning, N.Y.). Two thousand five hundred cells were added per well in 50 μL complete growth medium. Plates were incubated for 67 h at 37° C., 5% CO2, and 95% humidity. At the end of the incubation period 10 μL of a 440 μM solution of resazurin (Sigma, St. Louis, Mo.) in PBS was added to each well and incubated for an additional 5 h at 37° C., 5% CO2, and 95% humidity. Plates were read on a Synergy2 reader (Biotek, Winooski, Vt.) using an excitation of 540 nm and an emission of 600 nm. IC50 values were calculated from a series of percent inhibition values determined at a range of inhibitor concentrations using software routines as implemented in the GraphPad Prism software package.
# [5] = molecular target: T3, unphosphorylated c-KIT kinase (uKIT, Seq. ID no. 2) (Homo sapiens, UniProt P10721); test: uKit kinase enzymatic assay (pyruvate kinase/lactate dehydrogenase coupled); format: biochemical; details: ATP 2000 μM, rate 3 to 4 h
# T3 construct: uKit with N-terminal GST fusion used for screening
# Experimental: uKit Kinase (Seq. ID No. 2) Assay
# Activity of unphosphorylated c-KIT kinase (uKIT, Seq. ID no. 2) was determined by following the production of ADP from the KIT kinase reaction with ATP and poly E4Y as substrates through coupling with the pyruvate kinase/lactate dehydrogenase system (e.g., Schindler et al. Science (2000) 289: 1938-1942). In this assay, the oxidation of NADH (thus the decrease at A340 nm) was continuously monitored spectrophometrically. The reaction mixture (100 μl) contained unphosphorylated KIT (12 nM), polyE4Y (1 mg/mL), MgCl2 (10 mM), pyruvate kinase (4 units), lactate dehydrogenase (0.7 units), phosphoenol pyruvate (1 mM), and NADH (0.28 mM) and ATP (2000 μM) in 90 mM Tris buffer containing 0.2% octyl-glucoside and 1% DMSO, pH 7.5. The inhibition reaction was started by mixing serial diluted test compound with the above reaction mixture. The absorption at 340 nm was monitored continuously for 4 hours at 30° C. on Synergy 2 plate reader (BioTech). Reaction rates around 3 to 4 h time frame were used to calculate % inhibitions, from which IC50 values were generated.
# T2 sequence (P09619 557-1106): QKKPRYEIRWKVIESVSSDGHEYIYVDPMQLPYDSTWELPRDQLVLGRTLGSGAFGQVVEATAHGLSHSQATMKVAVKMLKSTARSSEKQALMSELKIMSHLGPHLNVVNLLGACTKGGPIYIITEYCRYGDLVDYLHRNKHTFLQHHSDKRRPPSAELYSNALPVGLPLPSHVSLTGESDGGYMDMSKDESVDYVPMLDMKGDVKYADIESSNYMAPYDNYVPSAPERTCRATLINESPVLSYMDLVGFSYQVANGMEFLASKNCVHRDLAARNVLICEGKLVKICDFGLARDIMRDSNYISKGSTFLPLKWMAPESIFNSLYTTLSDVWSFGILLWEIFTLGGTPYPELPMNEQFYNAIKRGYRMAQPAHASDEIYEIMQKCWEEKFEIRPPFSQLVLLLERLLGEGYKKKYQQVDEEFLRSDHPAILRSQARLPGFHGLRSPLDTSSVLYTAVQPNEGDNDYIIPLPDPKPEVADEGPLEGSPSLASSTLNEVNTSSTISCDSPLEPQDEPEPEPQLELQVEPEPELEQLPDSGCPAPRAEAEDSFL
# T3 sequence (P10721 with tags, fused parts or gaps): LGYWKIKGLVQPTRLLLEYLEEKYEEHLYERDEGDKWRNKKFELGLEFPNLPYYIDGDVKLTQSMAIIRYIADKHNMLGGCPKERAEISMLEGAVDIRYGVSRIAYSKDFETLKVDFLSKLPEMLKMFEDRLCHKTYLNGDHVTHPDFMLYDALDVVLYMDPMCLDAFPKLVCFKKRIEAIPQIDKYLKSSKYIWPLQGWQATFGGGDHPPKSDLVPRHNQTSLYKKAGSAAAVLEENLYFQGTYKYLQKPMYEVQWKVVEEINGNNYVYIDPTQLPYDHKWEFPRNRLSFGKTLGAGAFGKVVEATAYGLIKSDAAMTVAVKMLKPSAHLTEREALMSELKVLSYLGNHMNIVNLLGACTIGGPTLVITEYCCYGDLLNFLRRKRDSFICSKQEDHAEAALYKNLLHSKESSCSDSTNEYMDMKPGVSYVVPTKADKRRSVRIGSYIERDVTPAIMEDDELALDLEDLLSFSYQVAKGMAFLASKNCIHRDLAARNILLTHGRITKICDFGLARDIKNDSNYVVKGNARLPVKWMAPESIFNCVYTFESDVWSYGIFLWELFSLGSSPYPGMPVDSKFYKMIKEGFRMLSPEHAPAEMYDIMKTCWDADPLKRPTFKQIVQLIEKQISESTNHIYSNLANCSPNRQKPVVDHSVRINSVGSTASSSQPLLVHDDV
IC50 [1] [nM],IC50 [2] [nM],IC50 [3] [nM],IC50 [5] [nM],SMILES,IC50 [4] [nM]
100 to 1000,10 to 100,> 1000,100 to 1000,"Cc1cn(-c2cc(Oc3ccc(-n4nc(-c5ccc(F)cc5)[nH]c4=O)nc3C)ccn2)cn1 [Example 29, 3-(4-fluorophenyl)-1-(6-methyl-5-((2-(4-methyl-1H-imidazol-1-yl)pyridin-4-yl)oxy)pyridin-2-yl)-1H-1,2,4-triazol-5(4H)-one]",100 to 1000
100 to 1000,10 to 100,100 to 1000,10 to 100,"Cc1nc(-n2nc(-c3ccc(F)cc3)[nH]c2=O)ccc1Oc1ccnc(NC(=O)C2CC2)c1 [Example 32, N-(4-((6-(3-(4-fluorophenyl)-5-oxo-4,5-dihydro-1H-1,2,4-triazol-1-yl)-2-methylpyridin-3-yl)oxy)pyridin-2-yl)cyclopropanecarboxamide]",100 to 1000
10 to 100,≤ 10,> 1000,10 to 100,"Cc1nc(-n2nc(-c3ccc(F)cc3)[nH]c2=O)ccc1Oc1ccnc(-c2cnn(C)c2)c1 [Example 28, 3-(4-fluorophenyl)-1-(6-methyl-5-((2-(1-methyl-1H-pyrazol-4-yl)pyridin-4-yl)oxy)pyridin-2-yl)-1H-1,2,4-triazol-5(4H)-one]",10 to 100

# Continued, molecule first:
SMILES,IC50 [1] [nM],IC50 [2] [nM],IC50 [3] [nM],IC50 [5] [nM],IC50 [4] [nM]
"Cc1nc(-n2nc(C(C)(C)C)[nH]c2=O)ccc1Oc1ccnc(-c2cn(C)cn2)c1 [Example 23, 3-(tert-butyl)-1-(6-methyl-5-((2-(1-methyl-1H-imidazol-4-yl)pyridin-4-yl)oxy)pyridin-2-yl)-1H-1,2,4-triazol-5(4H)-one]",10 to 100,10 to 100,> 1000,> 1000,100 to 1000
"Cc1nc(-n2nc(C(C)(C)CO)[nH]c2=O)ccc1Oc1ccnc(-c2cnn(C)c2)c1 [Example 42, 3-(1-hydroxy-2-methylpropan-2-yl)-1-(6-methyl-5-((2-(1-methyl-1H-pyrazol-4-yl)pyridin-4-yl)oxy)pyridin-2-yl)-1H-1,2,4-triazol-5(4H)-one]",100 to 1000,10 to 100,> 1000,> 1000,> 1000
"COCCc1nn(-c2ccc(Oc3ccnc(-c4cnn(C)c4)c3)c(C)n2)c(=O)[nH]1 [Example 15, 3-(2-methoxyethyl)-1-(6-methyl-5-((2-(1-methyl-1H-pyrazol-4-yl)pyridin-4-yl)oxy)pyridin-2-yl)-1H-1,2,4-triazol-5(4H)-one]",100 to 1000,10 to 100,> 1000,> 1000,> 1000
"Cc1nc(-n2nc(C(C)(C)C)[nH]c2=O)ccc1Oc1ccnc(NC(=O)C2CC2)c1 [Example 45, N-(4-((6-(3-(tert-butyl)-5-oxo-4,5-dihydro-1H-1,2,4-triazol-1-yl)-2-methylpyridin-3-yl)oxy)pyridin-2-yl)cyclopropanecarboxamide]",10 to 100,100 to 1000,> 1000,> 1000,100 to 1000
"Cc1nc(-n2nc(C(C)(C)C)[nH]c2=O)ccc1Oc1ccnc(NC(=O)C2CCN(C)CC2)c1 [Example 21, N-(4-((6(3-(tert-butyl)-5-oxo-4,5-dihydro-1H-1,2,4-triazol-1-yl)-2-methylpyridin-3-yl)oxy)pyridin-2-yl)-1-methylpiperidine-4-carboxamide]",100 to 1000,100 to 1000,> 1000,> 1000,> 1000
"Cc1nc(-n2nc(C(C)(C)C)[nH]c2=O)ccc1Oc1ccnc(-c2cn[nH]c2)c1 [Example 24, 1-(5-((2-(1H-pyrazol-4-yl)pyridin-4-yl)oxy)-6-methylpyridin-2-yl)-3-(tert-butyl)-1H-1,2,4-triazol-5(4H)-one]",100 to 1000,100 to 1000,> 1000,> 1000,100 to 1000
"Cc1nc(-n2nc(C3CCCC3)[nH]c2=O)ccc1Oc1ccnc(-c2cnn(C)c2)c1 [Example 34, 3-cyclopentyl-1-(6-methyl-5-((2-(1-methyl-1H-pyrazol-4-yl)pyridin-4-yl)oxy)pyridin-2-yl)-1H-1,2,4-triazol-5(4H)-one]",10 to 100,≤ 10,10 to 100,≤ 10,≤ 10
